{"source": "paper PMC3971408", "about": "“Inhibition of triosephosphate isomerase by phosphoenolpyruvate in the feedback-regulation of glycolysis” (Open Biology, 2014)", "key": {"[1]": {"target": "T1, triosephosphate isomerase (TPI) (Oryctolagus cuniculus, UniProt P00939)", "T1 construct": "gene TPI1; Native rabbit muscle TPI (Sigma); homodimer, 246 of 250 amino acids modelled", "T1 sequence (P00939 2-249)": "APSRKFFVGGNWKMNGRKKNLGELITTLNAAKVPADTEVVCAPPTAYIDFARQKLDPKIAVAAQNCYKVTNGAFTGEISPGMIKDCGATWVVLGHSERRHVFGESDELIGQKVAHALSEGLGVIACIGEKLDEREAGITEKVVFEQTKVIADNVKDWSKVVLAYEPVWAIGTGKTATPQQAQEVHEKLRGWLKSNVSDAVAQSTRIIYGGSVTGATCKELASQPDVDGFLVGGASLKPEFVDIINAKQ", "assay": "co-crystal structure at […] Å", "format": "binding"}, "[2]": {"target": "T2, human TPIIle170Thr (Homo sapiens, UniProt P60174, I171T)", "T2 construct": "gene TPI1; 6x-histidine tagged human TPI", "T2 sequence (P60174 2-249 I171T)": "as the sequence (P00939 2-249) above, with K19Q, N20S, T26G, S118A, I170T counted along it", "assay": "enzyme-coupled activity assay with PEP titration; thermal shift ΔTm […]°C", "format": "biochemical"}, "[3]": {"target": "T3, human triosephosphate isomerase (TPI) (Homo sapiens, UniProt P60174)", "T3 construct": "gene TPI1; 6x-histidine tagged wild-type human TPI", "T3 sequence (P60174 2-249)": "as the sequence (P00939 2-249) above, with K19Q, N20S, T26G, S118A counted along it", "assay": "enzyme-coupled activity assay with PEP titration (IC50 […]); thermal shift ΔTm […]°C", "format": "biochemical"}, "[4]": {"target": "T4, human TPIIle170Val (Homo sapiens, UniProt P60174, I171V)", "T4 construct": "gene TPI1; 6x-histidine tagged human TPI", "T4 sequence (P60174 2-249 I171V)": "as the sequence (P00939 2-249) above, with K19Q, N20S, T26G, S118A, I170V counted along it", "assay": "enzyme-coupled activity assay with PEP titration; thermal shift ΔTm […]°C", "format": "biochemical"}}, "data": [{"smiles": "C=C(OP(=O)(O)O)C(=O)O", "note": "[PEP, phosphoenolpyruvate]", "values": [{"measurement": "co-crystal structure at 1.55 Å", "setting": "[1]", "result": "The electron density map gave a clearly defined and unambiguous shape for PEP bound to the active sites"}, {"measurement": "IC50", "setting": "[2]", "result": 1540, "unit": "µM"}, {"measurement": "Ki", "setting": "[3]", "result": 230, "unit": "µM"}, {"measurement": "IC50", "setting": "[4]", "result": 1930, "unit": "µM"}]}]}
